Measured values published in ChEMBL document CHEMBL1146864, “Aryloxyethylamines: binding at alpha7 nicotinic acetylcholine receptors” (Bioorg Med Chem Lett, 2006).

molecular target: Neuronal acetylcholine receptor subunit alpha-7 (Rattus norvegicus, UniProt Q05941); assay: Displacement of [125I]iodo-MLA from alpha-7 nAChR in rat cerebral cortex; type: tissue-based
Sequence (Q05941 whole entry): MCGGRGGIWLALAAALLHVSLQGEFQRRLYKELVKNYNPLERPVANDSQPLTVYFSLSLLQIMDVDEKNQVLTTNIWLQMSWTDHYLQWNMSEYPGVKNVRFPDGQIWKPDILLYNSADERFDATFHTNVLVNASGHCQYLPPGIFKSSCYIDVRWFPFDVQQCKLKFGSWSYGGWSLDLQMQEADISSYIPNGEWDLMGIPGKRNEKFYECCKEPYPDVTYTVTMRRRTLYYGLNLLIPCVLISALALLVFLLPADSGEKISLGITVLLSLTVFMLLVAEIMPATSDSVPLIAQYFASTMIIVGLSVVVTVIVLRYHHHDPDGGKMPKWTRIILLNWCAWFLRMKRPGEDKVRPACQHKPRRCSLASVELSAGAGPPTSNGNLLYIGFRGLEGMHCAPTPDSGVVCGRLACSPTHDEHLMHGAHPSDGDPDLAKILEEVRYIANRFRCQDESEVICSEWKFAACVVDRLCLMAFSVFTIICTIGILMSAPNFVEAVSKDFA

Row | SMILES | Ki [µM]
1 | CN(C)CCOc1ccccc1 | > 10
2 | CN(C)CCOc1ccc(/C=C/c2ccccc2)cc1 | > 10
3 | CNC/C=C/c1cccnc1 | > 10
4 | CNCCOc1cccnc1 | > 10
5 | CN1CCCC1c1ccc(CCc2ccccc2)nc1 (racemic) | > 10
6 | CN(C)CCOc1ccc(CCc2ccccc2)nc1 | > 10
7 | CCN(C)CCOc1cccnc1 | > 10
8 | CNCCCc1cccnc1 | > 10
9 | CNC/C=C\c1cccnc1 | > 10
10 | C[N+](C)(C)CCCOc1cccnc1 | > 10
11 | C[N+](C)(C)CCOc1cccnc1 | 0.28
12 | C[N+](C)(C)CCOc1ccc(/C=C/c2ccccc2)cc1 | 2.17
13 | C[N+](C)(C)CCOc1ccc(CCc2ccccc2)cc1 | 7.5
14 | CN(C)CCOc1cccnc1 | > 10
15 | C[N+](C)(C)CCOc1ccccc1 | 1.1
16 | CN(C)CCOc1ccc(/C=C/c2ccccc2)nc1 | > 10
17 | C[N+](C)(C)CCOc1ccc(/C=C/c2ccccc2)nc1 | 1.25
18 | C[N+](C)(C)CCOc1ccc(CCc2ccccc2)nc1 | 4.32
19 | CN(C)CCOc1ccc(CCc2ccccc2)cc1 | > 10

system: not listed separately; assay: Selectivity for alpha-7 over alpha4beta2

Row | SMILES | Selectivity ratio
20 | C[N+](C)(C)CCOc1cccnc1 | 560
